# Reference: patent publication US20170319532A1, “METHODS AND FORMULATIONS FOR TREATMENT AND/OR PREVENTION OF BLOOD-ASSOCIATED DISORDERS” (TWi Biotechnology, Inc., priority 2016, published 2017)
# Tested on: hemophilic arthropathy rat model (knee joint swelling)
# Experiment: Joint swelling in rat hemophilic arthropathy model induced by intraarticular injection of whole blood
# Type: in vivo, female Lewis rats
# Details: for % change of joint swelling: left vs right knee oval area, p<0.05
# Procedure: A total of 8 female Lewis rats were used for hemophilia arthropathy (HA) study. The animals were specific pathogen free and approximately 6 to 7 weeks old upon start dosing.
# Animals were randomized into 2 groups on Day 1 and started to receive diacerein or vehicle treatments throughout the study of 10 days. On Day 4 and Day 8, treatment was performed 1 hour before HA model induction. For HA induction, under anesthesia with 1.5-5% isoflurane (inhalation anesthesia machine, Matrix vip 3000 isoflurane), blood was collected from orbital sinus of each rat and immediately, 0.1 ml of whole blood was intraarticular injected into the cavity of left knee using syringe with 27G needle. The blood was anti-coagulated with EDTA-2K. Body weight and joint swelling measurement were assessed 4 hours post-dosing every day.
# The longitudinal and transverse axes of both knee joints were measured with calipers on Day 1 (pre-dose), Day 4 (pre-dose), and Day 4-10 (4 hours post-dose). The oval area of knee joints and % change of joint swelling was calculated using the following formula:
# Oval area=longitudinal axis×transverse axis×3.14×0.25% change of joint swelling=(Oval area left−Oval area right)/Oval area right×100%
structure (smiles),measurement,setting,value
"CC(=O)Oc1cccc2c1C(=O)c1c(OC(C)=O)cc(C(=O)O)cc1C2=O [diacerein, 4,5-bis (acetyloxy) 9,10-dihydro-4,5-dihydroxy-9,10-dioxo-2-anthracenecarboxylic acid]",% change of joint swelling,"Day 8, the second hemophilia arthropathy induction, vehicle 22.57±3.77%",10.02±3.54%
same,% change of joint swelling,"Day 10, end of the study, vehicle 13.51±4.78%",0.50±3.28%
same,joint swelling (qualitative),"hemophilic arthropathy rat model, compared with vehicle",suppressed joint swelling
